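Exposure lasted 48 hours, with cells grown in 96-well plates and compounds tested at five concentrations. The concentration for 50% growth inhibition is given as GI50. TGI is the concentration that stops growth completely.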
How the values were obtained:
Test in all cases: inhibition of tumour cell growth, NCI panel, 48 h
[1] = test system: SF-268 CNS
[2] = test system: HOP-92 NSCLC
[3] = test system: A498 renal
[4] = test system: HCT-15 colon
[5] = test system: MOLT-4 leukemia
[6] = test system: UO-31 renal
[7] = test system: NCI-H460 lung
[8] = test system: ACHN renal
[9] = test system: MCF7 breast
[10] = test system: T-47D breast

Row | Structure (SMILES) | TGI [1] [µM] | TGI [2] [µM] | TGI [3] [µM] | TGI [4] [µM] | TGI [5] [µM] | TGI [6] [µM] | TGI [7] [µM] | TGI [8] [µM] | TGI [9] [µM] | TGI [10] [µM] | GI50 [1] [µM] | GI50 [2] [µM] | GI50 [8] [µM] | GI50 [4] [µM] | GI50 [9] [µM] | GI50 [5] [µM] | GI50 [6] [µM] | GI50 [7] [µM]
1 | CCC(=O)/C(=C\I)c1ccccc1 | 40.3 | 4.27 | 32.1 | 3.37 | 7.08 | 4.2 | 25.5 | – | – | – | – | – | – | – | – | – | – | –
2 | COCC12CCC(OC)C34C5CC6(O)C(OC)CC(OC(C)=O)(C5C6OC(=O)c5ccccc5)C(C(OC)C13)C4N(C)C2 (configuration not stated) | > 100 | > 100 | > 100 | > 100 | > 100 | > 100 | > 100 | > 100 | > 100 | > 100 | – | – | – | – | – | – | – | –
3 | COc1ccc2[nH]c(C(=O)N3CC(CCl)c4c3cc(N)c3ccccc43)cc2c1 (configuration not stated) | < 0.01 | – | 0.0399 | 1.15 | < 0.0153 | < 0.0164 | – | – | 0.0353 | < 0.0281 | – | – | – | – | – | – | – | –
4 | COc1ccc2c(c1)c1nn(CCN3CCCCC3)c3ccc4c(=O)n(CCN(C)C)c(=O)n2c4c13 | 0.0766 | 0.901 | 0.119 | 0.0825 | – | 0.354 | < 0.0216 | 0.243 | < 0.0504 | 0.454 | – | – | – | – | – | – | – | –
5 | O=C(c1ccc(O)c([N+](=O)[O-])c1)c1ccc(O)c([N+](=O)[O-])c1 | > 100 | > 100 | > 100 | > 100 | – | > 100 | > 100 | > 100 | > 100 | > 100 | – | – | – | – | – | – | – | –
6 | COc1cc(OC2OC(COC(=O)c3cc(O)c(O)c(O)c3)C(O)C(O)C2O)ccc1O (configuration not stated) | > 100 | > 100 | > 100 | > 100 | > 100 | > 100 | > 100 | > 100 | > 100 | – | – | – | – | – | – | – | – | –
7 | CC(=O)N(C(C)=O)n1c(Cc2ccc(C)cc2)nn(C(C)=O)c1=O | > 100 | > 100 | > 100 | > 100 | > 100 | > 100 | > 100 | > 100 | > 100 | > 100 | – | – | – | – | – | – | – | –
8 | CCOC(=O)C(NC(=O)CC)(Nc1ccc(F)c(Cl)c1)C(F)(F)F (configuration not stated) | > 100 | > 100 | > 100 | > 100 | > 100 | > 100 | > 100 | > 100 | > 100 | > 100 | – | – | – | – | – | – | – | –
9 | CCOc1ccc(/C=C2\NC(=S)N(/C=C3\C(=O)Oc4ccccc4C3=O)C2=O)cc1 | 68 | 53.4 | – | 49.9 | 51.2 | 49.4 | 51.8 | 56.3 | 63.1 | – | – | – | – | – | – | – | – | –
10 | O=C1/C(=C/c2ccccc2)NC(=S)N1CN1CCCCC1 | > 100 | > 100 | > 100 | > 100 | > 100 | > 100 | – | > 100 | > 100 | – | – | – | – | – | – | – | – | –
11 | CNC(=S)NNc1ncnc2c1ncn2-c1ccc(C)cc1 | > 100 | > 100 | > 100 | > 100 | > 100 | > 100 | > 100 | – | – | > 100 | – | – | – | – | – | – | – | –
12 | C[n+]1c2ccccc2c(/C=N\NS(=O)(=O)c2ccc(Cl)cc2)c2ccccc21 | > 100 | > 100 | > 100 | > 100 | > 100 | > 100 | > 100 | > 100 | – | – | – | – | – | – | – | – | – | –
13 | Clc1ccc(C2CC(c3cccc(Nc4ccncc4)c3)=NN2c2cc(Cl)cc(Cl)c2)cc1 (configuration not stated) | 3.59 | 2.99 | – | 3.45 | 5.01 | 2.77 | 4.03 | 2.98 | 4.73 | – | 1.78 | 1.51 | 1.61 | 1.77 | 2.05 | 2.17 | 1.34 | 1.97
14 | NC(=Nc1ccccc1)c1ccccc1N | > 100 | > 100 | > 100 | > 100 | > 100 | > 100 | > 100 | > 100 | > 100 | – | – | – | – | – | – | – | – | –
15 | COC([C@@H](OC(=O)c1ccccc1)[C@H](OC(=O)c1ccccc1)C(O)COC(=O)c1ccccc1)n1cc(C)c(=O)[nH]c1=O (some centres not stated) | > 100 | – | – | > 100 | 60.2 | > 100 | > 100 | > 100 | 52.3 | > 100 | – | – | – | – | – | – | – | –
16 | Cc1ccc(S(=O)(=O)n2ccc(-c3ccc4ccn(S(=O)(=O)c5ccc(C)cc5)c4c3)c2)cc1 | > 100 | – | > 100 | > 100 | > 100 | > 100 | – | > 100 | > 100 | > 100 | – | – | – | – | – | – | – | –
17 | N[C@H](CCC(=O)NCP(=O)(O)O)C(=O)O | – | – | > 100 | > 100 | > 100 | > 100 | > 100 | > 100 | > 100 | > 100 | – | – | – | – | – | – | – | –
18 | CCCCCCCCCCCCCCCCCC(=O)Nc1ccn(C2CCC(COP(=O)(O)O)O2)c(=O)n1 (configuration not stated) | > 100 | > 100 | > 100 | > 100 | > 100 | > 100 | – | > 100 | > 100 | > 100 | – | – | – | – | – | – | – | –
19 | Nc1ccc2ccc(-c3ccc[nH]3)nc2n1 | > 100 | > 100 | > 100 | > 100 | – | > 100 | > 100 | > 100 | > 100 | > 100 | – | – | – | – | – | – | – | –
20 | COP(=O)(O)C(N)Cc1c[nH]c2ccccc12 (configuration not stated) | – | > 100 | > 100 | > 100 | > 100 | > 100 | > 100 | > 100 | > 100 | > 100 | – | – | – | – | – | – | – | –
21 | N=c1oc2ccccc2cc1-c1nc2ccccc2c(=O)[nH]1 | > 100 | 66.1 | – | > 100 | > 100 | > 100 | > 100 | > 100 | > 100 | > 100 | – | – | – | – | – | – | – | –
22 | O=C(O)CNC(=O)c1ccc2cc(C(=O)N3CC(CCl)c4ccc([N+](=O)[O-])cc43)[nH]c2c1 (configuration not stated) | > 100 | > 100 | – | > 100 | > 100 | > 100 | > 100 | > 100 | > 100 | > 100 | – | – | – | – | – | – | – | –

From PubChem BioAssay (NCI)
